Read-outs that look alike come from different tables or passages of the source.
Assays:
Format in all cases: biochemical
JAK1 = JAK1 (Homo sapiens (Human), UniProt P23458); assay: Enzyme assay (Assay Example^a 1), JAK1; conditions: ATP 100 μM
JAK2 = JAK2 (Homo sapiens (Human), UniProt O60674); assay: Enzyme assay (Assay Example^a 1), JAK2
Tyk2 = Tyk2 (Homo sapiens (Human), UniProt P29597); assay: Enzyme assay (Assay Example^a 1), Tyk2; conditions: ATP 100 μM
JAK3 = JAK3 (Homo sapiens (Human), UniProt P52333); assay: Enzyme assay (Assay Example^a 1), JAK3; conditions: ATP 100 μM
Chain of JAK3 (P52333 whole entry): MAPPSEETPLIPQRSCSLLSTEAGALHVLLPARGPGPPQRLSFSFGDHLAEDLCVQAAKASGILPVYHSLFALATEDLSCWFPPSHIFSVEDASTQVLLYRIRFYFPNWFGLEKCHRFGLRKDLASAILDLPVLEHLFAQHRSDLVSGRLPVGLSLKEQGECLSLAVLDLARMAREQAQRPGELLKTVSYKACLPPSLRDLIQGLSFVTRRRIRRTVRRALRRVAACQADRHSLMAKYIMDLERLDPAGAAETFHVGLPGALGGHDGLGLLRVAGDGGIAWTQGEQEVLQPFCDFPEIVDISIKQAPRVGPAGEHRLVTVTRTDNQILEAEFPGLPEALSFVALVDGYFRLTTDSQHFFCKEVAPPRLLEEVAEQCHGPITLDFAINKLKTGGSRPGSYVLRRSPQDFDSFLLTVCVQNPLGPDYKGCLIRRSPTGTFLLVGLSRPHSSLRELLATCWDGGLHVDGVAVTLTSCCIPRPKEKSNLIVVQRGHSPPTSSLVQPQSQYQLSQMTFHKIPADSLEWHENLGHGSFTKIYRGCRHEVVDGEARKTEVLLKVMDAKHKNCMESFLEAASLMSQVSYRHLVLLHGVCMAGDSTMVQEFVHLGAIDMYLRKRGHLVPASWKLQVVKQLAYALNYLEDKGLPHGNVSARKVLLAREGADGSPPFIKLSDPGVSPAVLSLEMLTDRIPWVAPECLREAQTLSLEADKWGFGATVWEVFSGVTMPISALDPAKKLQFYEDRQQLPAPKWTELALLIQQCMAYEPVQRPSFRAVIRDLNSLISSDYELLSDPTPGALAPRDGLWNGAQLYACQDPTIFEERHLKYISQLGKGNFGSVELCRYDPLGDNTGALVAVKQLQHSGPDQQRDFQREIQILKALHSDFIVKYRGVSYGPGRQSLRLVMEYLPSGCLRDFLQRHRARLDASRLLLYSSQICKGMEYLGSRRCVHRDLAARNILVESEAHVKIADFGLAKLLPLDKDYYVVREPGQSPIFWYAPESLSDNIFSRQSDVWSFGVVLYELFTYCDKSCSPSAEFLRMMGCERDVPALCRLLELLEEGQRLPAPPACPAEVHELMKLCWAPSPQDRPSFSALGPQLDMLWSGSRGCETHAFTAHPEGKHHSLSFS

Chain of Tyk2 (P29597 whole entry): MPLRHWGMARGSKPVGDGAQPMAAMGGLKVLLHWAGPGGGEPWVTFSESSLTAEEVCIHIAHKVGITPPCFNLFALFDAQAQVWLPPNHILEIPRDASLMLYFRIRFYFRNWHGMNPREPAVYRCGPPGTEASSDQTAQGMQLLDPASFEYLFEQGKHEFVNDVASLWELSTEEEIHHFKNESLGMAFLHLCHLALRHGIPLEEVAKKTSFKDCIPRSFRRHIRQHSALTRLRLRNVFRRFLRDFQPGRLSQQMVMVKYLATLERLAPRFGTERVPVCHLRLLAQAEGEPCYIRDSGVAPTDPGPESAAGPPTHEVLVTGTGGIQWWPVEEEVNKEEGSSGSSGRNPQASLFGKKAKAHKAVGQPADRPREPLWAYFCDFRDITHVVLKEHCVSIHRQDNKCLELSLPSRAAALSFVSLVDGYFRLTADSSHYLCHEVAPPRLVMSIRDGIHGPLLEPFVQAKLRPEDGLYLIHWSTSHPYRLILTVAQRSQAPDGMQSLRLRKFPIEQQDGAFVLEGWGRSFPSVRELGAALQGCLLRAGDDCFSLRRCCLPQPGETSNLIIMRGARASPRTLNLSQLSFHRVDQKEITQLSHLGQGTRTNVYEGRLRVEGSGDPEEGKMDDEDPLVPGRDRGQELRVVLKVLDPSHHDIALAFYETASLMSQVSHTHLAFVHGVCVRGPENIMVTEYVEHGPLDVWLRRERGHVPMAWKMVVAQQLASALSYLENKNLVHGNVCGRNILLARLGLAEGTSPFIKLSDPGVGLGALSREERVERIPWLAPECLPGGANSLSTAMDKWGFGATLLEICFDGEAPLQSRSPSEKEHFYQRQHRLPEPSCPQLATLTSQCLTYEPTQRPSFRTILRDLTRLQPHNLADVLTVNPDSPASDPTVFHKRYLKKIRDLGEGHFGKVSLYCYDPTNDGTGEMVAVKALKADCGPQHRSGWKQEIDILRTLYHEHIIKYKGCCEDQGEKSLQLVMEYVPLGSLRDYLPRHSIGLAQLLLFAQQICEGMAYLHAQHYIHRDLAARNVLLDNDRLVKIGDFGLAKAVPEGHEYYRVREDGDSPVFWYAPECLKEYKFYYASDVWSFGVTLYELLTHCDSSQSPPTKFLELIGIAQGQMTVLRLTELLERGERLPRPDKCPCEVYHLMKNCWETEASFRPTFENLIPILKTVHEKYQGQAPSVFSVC

SMILES: OC(CN[C@H]1CC[C@@H](c2nnn3cnc4[nH]ccc4c23)CC1)(c1ccccc1)C(F)(F)F (mixture of isomers) [196a, 3-{[cis-4-(7H-pyrrolo[3,2-e][1,2,3]triazolo[1,5-c]pyrimidin-1-yl)cyclohexyl]amino}-1,1,1-trifluoro-2-phenylpropan-2-ol]
- IC50 (JAK1; Table^a 154): 0.06 µM
- IC50 (JAK2; ATP 100 μM, Table^a 154): 0.75 µM

SMILES: OC(CN[C@H]1CC[C@H](c2nnn3cnc4[nH]ccc4c23)CC1)(c1ccccc1)C(F)(F)F (mixture of isomers) [196b, 3-{[trans-4-(7H-pyrrolo[3,2-e][1,2,3]triazolo[1,5-c]pyrimidin-1-yl)cyclohexyl]amino}-1,1,1-trifluoro-2-phenylpropan-2-ol]
- IC50 (JAK1; Table^a 154): 0.0032 µM
- IC50 (JAK2; ATP 100 μM, Table^a 154): 0.036 µM

SMILES: OC(CN[C@H]1CC[C@H](c2nnn3cnc4[nH]ccc4c23)CC1)(c1ccc(Cl)cc1)C(F)(F)F (mixture of isomers) [199b, 3-((trans-4-(7H-pyrrolo[3,2-e][1,2,3]triazolo[1,5-c]pyrimidin-1-yl)cyclohexyl)amino)-2-(4-chlorophenyl)-1,1,1-trifluoropropan-2-ol]
- IC50 (JAK1; Table^a 154): 0.0035 µM
- IC50 (JAK2; ATP 100 μM, Table^a 154): 0.035 µM
- IC50 (Tyk2; Table^a 154): 0.44 µM

SMILES: OC(CN[C@H]1CC[C@H](c2nnn3cnc4[nH]ccc4c23)CC1)(c1ccc(F)cc1)C(F)(F)F (mixture of isomers) [200b, 3-{[trans-4-(7H-pyrrolo[3,2-e][1,2,3]triazolo[1,5-c]pyrimidin-1-yl)cyclohexyl]amino}-1,1,1-trifluoro-2-(4-fluorophenyl)propan-2-ol]
- IC50 (JAK1; Table^a 154): 0.0025 µM
- IC50 (JAK2; ATP 100 μM, Table^a 154): 0.032 µM
- IC50 (Tyk2; Table^a 154): 0.24 µM

SMILES: O=C(OCc1ccccc1)N1CCCC(c2nnn3cnc4[nH]ccc4c23)C1 (racemic) [compound 14]
- IC50 (JAK1; Table^a 154): 0.021 µM
- IC50 (JAK2; ATP 100 μM, Table^a 154): 0.11 µM
- IC50 (Tyk2; Table^a 154): 2.2 µM

SMILES: c1cc2c(ncn3nnc(C4CCCNC4)c23)[nH]1 (racemic) [compound 15]
- IC50 (JAK2; ATP 100 μM, Table^a 154): 2.5 µM
- IC50 (Tyk2; Table^a 154): > 1 µM

SMILES: OC(CN1CCC(c2nnn3cnc4[nH]ccc4c23)CC1)c1ccc(C(F)(F)F)cc1 (racemic) [compound 212, 2-[4-(7H-Pyrrolo[3,2-e][1,2,3]triazolo[1,5-c]pyrimidin-1-yl)piperidin-1-yl]-1-[4-(trifluoromethyl)phenyl]ethanol]
- IC50 (JAK2; ATP 100 μM, Table^a 154): 0.047 µM
- IC50 (Tyk2; Table^a 154): 0.45 µM

SMILES: c1cc2c(ncn3cnc(C4CCCCC4)c23)[nH]1 [compound 2]
- IC50 (JAK1): 0.014 µM
- IC50 (JAK2; ATP 100 μM): 0.017 µM

SMILES: CC1CCN(C(=O)OC(C)(C)C)CC1c1nnn2cnc3[nH]ccc3c12 (centres unmarked) [compound 11]
- IC50 (JAK2; ATP 100 μM, Table^a 154): 0.34 µM

SMILES: CC(C)(C)OC(=O)N1CCC(c2nnn3cnc4[nH]ccc4c23)CC1 [compound 24]
- IC50 (JAK2): 0.51 µM

SMILES: c1cc2c(ncn3nnc(C4CCNCC4)c23)[nH]1 [compound 27]
- IC50 (JAK2): > 1 µM

SMILES: FC(F)(F)c1ccc(CN2CCC(c3nnn4cnc5[nH]ccc5c34)CC2)cc1 [compound 33]
- IC50 (JAK2): 0.019 µM

SMILES: Cc1cc(OC(F)(F)F)ccc1NC[C@H]1CC[C@H](c2nnn3cnc4[nH]ccc4c23)CC1 [compound 104]
- IC50 (JAK2; ATP 100 μM, Table^a 154): > 1 µM
- IC50 (JAK3; Table^a 154): > 1 µM
- IC50 (Tyk2; Table^a 154): > 1 µM

SMILES: N#Cc1ccc(NC[C@H]2CC[C@H](c3nnn4cnc5[nH]ccc5c34)CC2)cc1C(F)(F)F [compound 105]
- IC50 (JAK2; ATP 100 μM, Table^a 154): 0.19 µM
- IC50 (JAK3; Table^a 154): > 1 µM
- IC50 (Tyk2; Table^a 154): 0.37 µM

SMILES: FC(F)(F)Oc1ccc(CNC[C@H]2CC[C@H](c3nnn4cnc5[nH]ccc5c34)CC2)cc1 [compound 110]
- IC50 (JAK1; Table^a 154): 0.0056 µM
- IC50 (JAK2; ATP 100 μM, Table^a 154): 0.091 µM

SMILES: FC(F)(F)c1cc(CN2CCC(c3nnn4cnc5[nH]ccc5c34)CC2)ccc1Cl [compound 155]
- IC50 (JAK1; Table^a 154): 0.011 µM
- IC50 (JAK2; ATP 100 μM, Table^a 154): 0.032 µM

SMILES: Fc1ccc(C2(NC[C@H]3CC[C@H](c4nnn5cnc6[nH]ccc6c45)CC3)CC2)cc1 [compound 323, N-{[trans-4-(7H-pyrrolo[3,2-e][1,2,3]triazolo[1,5-c]pyrimidin-1-yl)cyclohexyl]methyl}-1-(4-fluorophenyl)cyclopropanamine]
- IC50 (JAK2; ATP 100 μM): 0.034 µM
- IC50 (JAK3): 0.83 µM
- IC50 (Tyk2): 0.78 µM

SMILES: FC1(F)CCN(C[C@H]2CC[C@H](c3nnn4cnc5[nH]ccc5c34)CC2)C1 [compound 328, 1-{trans-4-[(3,3-difluoropyrrolidin-1-yl)methyl]cyclohexyl}-7H-pyrrolo[3,2-e][1,2,3]triazolo[1,5-c]pyrimidine]
- IC50 (JAK1): 0.0073 µM
- IC50 (JAK3): 0.53 µM
- IC50 (Tyk2): 0.9 µM

SMILES: O=C(NCC(O)(c1ccc(F)cc1)C(F)(F)F)[C@H]1CC[C@H](c2nnn3cnc4[nH]ccc4c23)CC1 (stereo partly drawn) [compound 347, trans-4-(7H-Pyrrolo[3,2-e][1,2,3]triazolo[1,5-c]pyrimidin-1-yl)-N-[3,3,3-trifluoro-2-(4-fluorophenyl)-2-hydroxypropyl]cyclohexanecarboxamide]
- IC50 (JAK1): 0.0069 µM
- IC50 (JAK3): 0.65 µM
- IC50 (Tyk2): > 1 µM

SMILES: N#Cc1ccc(CNC(=O)[C@H]2CC[C@H](c3nnn4cnc5[nH]ccc5c34)CC2)cc1 [compound 350, trans-N-(4-cyanobenzyl)-4-(7H-pyrrolo[3,2-e][1,2,3]triazolo[1,5-c]pyrimidin-1-yl)cyclohexanecarboxamide]
- IC50 (JAK1): 0.008 µM
- IC50 (JAK3): > 1 µM
- IC50 (Tyk2): 0.54 µM

SMILES: O=C(NCC(F)(F)F)[C@H]1CC[C@H](c2nnn3cnc4[nH]ccc4c23)CC1 [compound 354, trans-4-(7H-pyrrolo[3,2-e][1,2,3]triazolo[1,5-c]pyrimidin-1-yl)-N-(2,2,2-trifluoroethyl)cyclohexanecarboxamide]
- IC50 (JAK1): 0.0018 µM
- IC50 (JAK3): 0.69 µM
- IC50 (Tyk2): 0.16 µM

SMILES: O=S(=O)(C[C@H]1CC[C@H](c2nnn3cnc4[nH]ccc4c23)CC1)c1ccccc1 [compound 364, 1-{trans-4-[(phenylsulfonyl)methyl]cyclohexyl}-7H-pyrrolo[3,2-e][1,2,3]triazolo[1,5-c]pyrimidine]
- IC50 (JAK1): 0.0057 µM
- IC50 (JAK2; ATP 100 μM): 0.011 µM

SMILES: O=S(=O)(C[C@H]1CC[C@H](c2nnn3cnc4[nH]ccc4c23)CC1)c1ccc(F)cc1 [compound 365, 1-(trans-4-{[(4-fluorophenyl)sulfonyl]methyl}cyclohexyl)-7H-pyrrolo[3,2-e][1,2,3]triazolo[1,5-c]pyrimidine]
- IC50 (JAK1): 0.0054 µM
- IC50 (JAK3): 0.74 µM
- IC50 (Tyk2): 0.34 µM

SMILES: N#Cc1ccc(CCN2CCC(c3nnn4cnc5[nH]ccc5c34)CC2)cc1 [compound 375, 4-{2-[4-(7H-Pyrrolo[3,2-e][1,2,3]triazolo[1,5-c]pyrimidin-1-yl)piperidin-1-yl]ethyl}benzonitrile]
- IC50 (JAK1): 0.047 µM
- IC50 (JAK3): > 1 µM
- IC50 (Tyk2): > 1 µM

SMILES: FC(F)(F)CN(CC1CC1)[C@H]1CC[C@H](c2nnn3cnc4[nH]ccc4c23)CC1 [compound 413, trans-N-(Cyclopropylmethyl)-4-(7H-pyrrolo[3,2-e][1,2,3]triazolo[1,5-c]pyrimidin-1-yl)-N-(2,2,2-trifluoroethyl)cyclohexanamine]
- IC50 (JAK1): 0.02 µM
- IC50 (JAK3): > 1 µM
- IC50 (Tyk2): 0.62 µM

SMILES: N#CC(C#N)C[C@H]1CC[C@H](c2nnn3cnc4[nH]ccc4c23)CC1 [compound 432, 2-{[trans-4-(7H-Pyrrolo[3,2-e][1,2,3]triazolo[1,5-c]pyrimidin-1-yl)cyclohexyl]methyl}malononitrile]
- IC50 (JAK2; ATP 100 μM): 0.0088 µM
- IC50 (JAK3): 0.17 µM
- IC50 (Tyk2): 0.067 µM

SMILES: N#CCC[C@H]1CC[C@H](c2nnn3cnc4[nH]ccc4c23)CC1 [compound 441, 3-[trans-4-(7H-Pyrrolo[3,2-e][1,2,3]triazolo[1,5-c]pyrimidin-1-yl)cyclohexyl]propanenitrile]
- IC50 (JAK1): 0.0016 µM
- IC50 (JAK3): 0.12 µM
- IC50 (Tyk2): 0.024 µM

Reference: patent publication US9216999B2, “Substituted pyrrolo[2,3-h][1,6]naphthyridines and compositions thereof as JAK inhibitors” (priority 2011, dated 2015)
